assay: TarO Biochemical Enzymatic Assay: The TarO biochemical enzymatic assay is a liquid chromatography-mass spectroscopy (LC-MS) based end point assay that measures C55-P-P-GlcNAc (LIPID III) production. The TarO biochemical enzymatic assay was performed in a 384-well microtiter plate (Labcyte) with a reaction volume of 20 μl. The reaction mix contained 0.1 μgs/μl of TarO membrane preparation derived from MRSA COL (lysostaphin/lysozyme treated, centrifuged at 40K rpm, and re-suspended in 50 mM Tris pH 7.5, 10 mM MgCl2), 1500 μM UDP-GlcNAc, x 75 μM C55-P substrates in 83 mM Tris pH 8.0, 6.7 mM MgCl2, 6 mM CHAPS, and 8.3% DMSO buffer. The enzyme reactions were quenched by extraction in 40 μl of 1-pentanol containing 0.04 μM […] C55-PP-GlcNAc, which was used as an internal standard. A 10 μl volume of the quenched reaction mixture (pH≈3) from each well was injected onto a reversed-phase column (C4, 5 m, 2.1×50 mm, Thermo Scientific Biobacis-4) and eluted using a NH4Ac/H2O/MeOH gradient (solvent A: 10 mM NH4Ac in water, pH 5.6; solvent B: NH4Ac (1 M)-Isopropanol (1:90, v/v, pH 5.6). The HPLC conditions were as follows: 15% solvent B for 15 seconds followed by a gradient to 90% solvent B in 90 seconds; then solvent B was kept at 95% for 10 seconds followed by a gradient to 8% solvent B in 0.1 minute. The column was then equilibrated at 15% B for 1 minute before the next injection. The flow rate was kept constant at 600 μl/minute. Mass spectrometric detection was carried out in the negative-ion mode using selected reaction monitoring (SRM). Typical mass spectrometric conditions were as follows: heated capillary temperature, 210° C.; spray voltage, 2500 V; desolvation gas (N2), 40 l/h; auxiliary gas (N2), 35 l/h. Selected ion current (SIC) chromatograms of C55-PP-GlcNAc and internal standard 15C C55-PP-GlcNAc were plotted and integrated using LCQuan incorporated in Xcalibur software (ThermoFinnigan). The linearity of C55-PP-GlcNAc concentration versus mass spectrometric signal (AC55-PP-GlcNAc/A15C-C55-PP-GlcNAc) was determined with purified C55-PP-GlcNAc. The IC50 values were calculated using the nonlinear regression analysis (sigmoidal dose response fit allowing for a variable slope) of percent inhibition data with minimum and maximum values set to 0 and 100 percent.

Point of comparison: `C[C@H]1[C@@H](c2cc(F)cc(C(F)(F)F)c2)OC(=O)N1C(=O)NCc1cccc2cn[nH]c12`, IC50 1420 nM. Against it:
- C[C@H]1[C@@H](c2cc(C(F)(F)F)cc(C(F)(F)F)c2)OC(=O)N1C(=O)NCc1cncc2ccccc12 — 47-fold lower, 30 nM
- C[C@H]1[C@@H](c2cc(F)cc(C(F)(F)F)c2)OC(=O)N1C(=O)NCc1cncc2ccccc12 — 140-fold lower, 10 nM
- O=C(NCc1cncc2ccccc12)N1C(=O)O[C@H](c2cc(F)cc(C(F)(F)F)c2)[C@@H]1CO — 6.8-fold lower, 210 nM
- C[C@H]1[C@@H](c2cc(C(F)(F)F)cc(C(F)(F)F)c2)OC(=O)N1C(=O)Cc1cccc2ccccc12 — 11-fold lower, 130 nM
- C[C@H]1[C@@H](c2cccc(C(F)(F)F)c2)OC(=O)N1C(=O)NCc1cncc2ccccc12 — 8.9-fold lower, 160 nM
- C[C@H]1[C@@H](c2cc(C(F)(F)F)cc(C(F)(F)F)c2)OC(=O)N1C(=O)CCc1cccc2ccccc12 — 140-fold lower, 10 nM
- C[C@H]1[C@@H](c2cccc(C(F)(F)F)c2)OC(=O)N1C(=O)NCc1cncc2cccnc12 — 11-fold lower, 130 nM
- C[C@H]1[C@@H](c2cc(C(F)(F)F)cc(C(F)(F)F)c2)OC(=O)N1C(=O)CCc1cncc2ccccc12 — 140-fold lower, 10 nM
- COc1cc(C(F)(F)F)cc([C@H]2OC(=O)N(C(=O)NCc3cncc4cccnc34)[C@H]2CO)n1 — 1.6-fold lower, 880 nM
- C[C@H]1[C@@H](c2cc(C(F)(F)F)cc(C(F)(F)F)c2)OC(=O)N1C(=O)NCc1cncc2cccnc12 — 140-fold lower, 10 nM
- O=C(NCc1cncc2cccnc12)N1C(=O)O[C@H](c2cc(C(F)(F)F)cc(C(F)(F)F)c2)[C@@H]1CO — 10-fold lower, 140 nM
- C[C@H]1[C@@H](c2cc(F)cc(C(F)(F)F)c2)OC(=O)N1C(=O)NCc1cnc2sccn12 — 54-fold higher, 77000 nM
- O=C(NCc1cccc2cncnc12)N1C(=O)O[C@H](c2cc(C(F)(F)F)cc(C(F)(F)F)c2)[C@@H]1CO — 18-fold lower, 80 nM
- C[C@H]1[C@@H](c2cc(F)cc(C(F)(F)F)c2)OC(=O)N1C(=O)NCc1cccc(N(C)C)c1 — 36-fold lower, 40 nM
- C[C@H]1[C@@H](c2cc(F)cc(C(F)(F)F)c2)OC(=O)N1C(=O)NCc1cccc2cc[nH]c12 — 24-fold lower, 60 nM
- COc1cncc(CNC(=O)N2C(=O)O[C@H](c3cc(C(F)(F)F)cc(C(F)(F)F)c3)[C@@H]2CO)c1OC — 47-fold lower, 30 nM
- C[C@H]1[C@@H](c2cc(F)cc(Br)c2)OC(=O)N1C(=O)NCc1cncc2ccccc12 — 5.9-fold lower, 240 nM
- C[C@H]1[C@@H](c2cc(F)cc(C(F)(F)F)c2)OC(=O)N1C(=O)NCc1ccccc1OC(F)F — 71-fold lower, 20 nM
- C[C@H]1[C@@H](c2cc(F)cc(C(F)(F)F)c2)OC(=O)N1C(=O)NCc1ccccc1C(F)(F)F — 47-fold lower, 30 nM
- COc1cc([C@H]2OC(=O)N(C(=O)NCc3cccc4nccnc34)[C@H]2CO)cc(C(F)(F)F)c1 — 3.2-fold lower, 450 nM
- Cc1cc(C)cc([C@H]2OC(=O)N(C(=O)CCc3cncc4ccccc34)[C@H]2C)c1 — within 1.5-fold, 1070 nM
- COc1ccncc1CNC(=O)N1C(=O)O[C@H](c2cc(C(F)(F)F)cc(C(F)(F)F)c2)[C@@H]1CO — 7.1-fold lower, 200 nM
- C[C@H]1[C@@H](c2cc(C(F)(F)F)cc(C(F)(F)F)c2)OC(=O)N1C(=O)NCC1CCCc2ccccc21 (stereo not given in full) — 8.9-fold lower, 160 nM
- C[C@H]1[C@@H](c2cccc(OC(F)(F)F)c2)OC(=O)N1C(=O)CCc1cccc2ccccc12 — 36-fold lower, 40 nM
- C[C@H]1[C@@H](c2cc(C(F)(F)F)cc(C(F)(F)F)c2)OC(=O)N1C(=O)NCc1cccc2ccnn12 — 140-fold lower, 10 nM
- C[C@H]1[C@@H](c2cc(C(F)(F)F)cc(C(F)(F)F)c2)OC(=O)N1C(=O)NCc1cccc2c1OCCO2 — 140-fold lower, 10 nM
- C[C@H]1[C@@H](c2cc(C(F)(F)F)cc(C(F)(F)F)c2)OC(=O)N1C(=O)NCc1ncccc1Br — 5.5-fold lower, 260 nM
- COc1cc([C@H]2OC(=O)N(C(=O)NCc3cncc4cccnc34)[C@H]2CO)cc(C(F)(F)F)c1 — within 1.5-fold, 1240 nM
- C[C@H]1[C@@H](c2cc(C(F)(F)F)cc(C(F)(F)F)c2)OC(=O)N1C(=O)NCc1cnc2c(c1)CCC2 — within 1.5-fold, 1870 nM
- C[C@H]1[C@@H](c2cc(F)cc(C(F)(F)F)c2)OC(=O)N1C(=O)N(O)Cc1cccc2ccccc12 — 5.5-fold higher, 7760 nM
- Cc1cc([C@H]2OC(=O)N(C(=O)CCc3cccc4cnccc34)[C@H]2C)cc(C(F)(F)F)c1 — 5.7-fold lower, 250 nM
- C[C@H]1[C@@H](c2cc(C(F)(F)F)cc(C(F)(F)F)c2)OC(=O)N1C(=O)NCc1nccc2ccoc12 — 9.5-fold lower, 150 nM
- Cc1ccccc1CNC(=O)N1C(=O)O[C@H](c2cc(F)cc(C(F)(F)F)c2)[C@@H]1C — 10-fold lower, 140 nM
- C[C@H]1[C@@H](c2cc(F)cc(C(F)(F)F)c2)OC(=O)N1C(=O)NCc1cccc2cncnc12 — 4.2-fold lower, 340 nM
- C[C@H]1[C@@H](c2cc(F)cc(C(F)(F)F)c2)OC(=O)N1C(=O)NCc1ccccc1-n1cccc1 — 3.2-fold lower, 450 nM
- C[C@H]1[C@@H](c2cc(F)cc(C(F)(F)F)c2)OC(=O)N1C(=O)NCc1cccc2c1C(=O)NC2 — within 1.5-fold, 1690 nM
- CCOc1cc([C@H]2OC(=O)N(C(=O)NCc3cccc4cncnc34)[C@H]2C)nc(C(F)(F)F)c1 — 140-fold lower, 10 nM
- C[C@H]1[C@@H](c2cccc(OC(F)(F)F)c2)OC(=O)N1C(=O)CCc1cncc2ccccc12 — 10-fold lower, 140 nM
- C[C@H]1[C@@H](c2cccc(F)c2)OC(=O)N1C(=O)CCc1cncc2ccccc12 — 2.1-fold higher, 3000 nM
- C[C@H]1[C@@H](c2cc(C(F)(F)F)cc(C(F)(F)F)c2)OC(=O)N1C(=O)NCc1cccnc1N1CCOCC1 — 2.5-fold higher, 3610 nM
- COc1ccccc1CNC(=O)N1C(=O)O[C@H](c2cc(F)cc(C(F)(F)F)c2)[C@@H]1C — 47-fold lower, 30 nM
- C[C@H]1[C@@H](c2cc(F)cc(C(F)(F)F)c2)OC(=O)N1C(=O)NCc1cccc2c1OCCO2 — 28-fold lower, 50 nM
- C[C@H]1[C@@H](c2cc(C(F)(F)F)cc(C(F)(F)F)c2)OC(=O)N1C(=O)CCc1cccc2sccc12 — 140-fold lower, 10 nM
- Cc1cccnc1CCNC(=O)N1C(=O)O[C@H](c2cc(C(F)(F)F)cc(C(F)(F)F)c2)[C@@H]1C — within 1.5-fold, 1780 nM
- C[C@H]1[C@@H](c2cc(F)cc(C3CC3)c2)OC(=O)N1C(=O)NCc1cncc2ccccc12 — 5.9-fold lower, 240 nM
- Cc1nc(C(C)C)sc1CNC(=O)N1C(=O)O[C@H](c2cc(F)cc(C(F)(F)F)c2)[C@@H]1C — 8.9-fold lower, 160 nM
- C[C@H]1[C@@H](c2cc(F)cc(C(F)(F)F)c2)OC(=O)N1C(=O)CCc1cncc2ccccc12 — 18-fold lower, 80 nM
- COc1cccnc1CNC(=O)N1C(=O)O[C@H](c2cc(C(F)(F)F)cc(C(F)(F)F)c2)[C@@H]1C — 1.6-fold lower, 910 nM
- O=C(CCc1cncc2ccccc12)N1CC(c2cc(C(F)(F)F)cc(C(F)(F)F)c2)OC1=O (stereo not given) — 3.4-fold lower, 420 nM
- C[C@H]1[C@@H](c2cc(F)cc(C(F)(F)F)c2)OC(=O)N1C(=O)NCc1cccc2nccnc12 — 7.5-fold lower, 190 nM
- C[C@H]1[C@@H](c2cc(F)cc(C(F)(F)F)c2)OC(=O)N1C(=O)NCc1ccnc2ccccc12 — 7.1-fold lower, 200 nM
- C[C@H]1[C@@H](c2cc(F)cc(C(F)(F)F)c2)OC(=O)N1C(=O)NCc1nccc2sccc12 — 12-fold lower, 120 nM
- C[C@H]1[C@@H](c2cc(F)cc(C(F)(F)F)c2)OC(=O)N1C(=O)NCc1ccccc1CN(C)C — 2.1-fold lower, 690 nM
- Cc1cccnc1CNC(=O)N1C(=O)O[C@H](c2cc(C(F)(F)F)cc(C(F)(F)F)c2)[C@@H]1C — 3.2-fold lower, 440 nM
- C[C@H]1[C@@H](c2cc(C(F)(F)F)cc(C(F)(F)F)c2)OC(=O)N1C(=O)NCc1cccc2nccnc12 — 28-fold lower, 50 nM
- C[C@H]1[C@@H](c2cc(F)c(F)c(F)c2)OC(=O)N1C(=O)CCc1cncc2ccccc12 — within 1.5-fold, 1810 nM
- Cc1nc(C)c(CNC(=O)N2C(=O)O[C@H](c3cc(F)cc(C(F)(F)F)c3)[C@@H]2C)s1 — 1.9-fold higher, 2650 nM
- C[C@H]1[C@@H](c2cc(F)cc(C(F)(F)F)c2)OC(=O)N1C(=O)NCc1ccccc1Cl — 8.4-fold lower, 170 nM
- CCOc1ccccc1CNC(=O)N1C(=O)O[C@H](c2cc(F)cc(C(F)(F)F)c2)[C@@H]1C — 14-fold lower, 100 nM
- C[C@H]1[C@@H](c2cc(C(F)(F)F)cc(C(F)(F)F)c2)OC(=O)N1C(=O)CCc1cccc2ncccc12 — 5.7-fold lower, 250 nM
- C[C@H]1[C@@H](c2cccc(C(F)F)c2)OC(=O)N1C(=O)NCc1cncc2ccccc12 — 2.9-fold lower, 490 nM
- COc1cc([C@H]2OC(=O)N(C(=O)NCc3cccc4cncnc34)[C@H]2CO)cc(C(F)(F)F)c1 — 1.6-fold lower, 870 nM
- C[C@H]1[C@@H](c2cc(F)cc(C(F)(F)F)c2)OC(=O)N1C(=O)NCc1cccc2ccccc12 — 71-fold lower, 20 nM
- COc1ccccc1CNC(=O)N1C(=O)O[C@H](c2cccc(C(F)(F)F)c2)[C@@H]1C — 6.5-fold lower, 220 nM
- Cc1cnc(F)c(CNC(=O)N2C(=O)O[C@H](c3cc(C(F)(F)F)cc(C(F)(F)F)c3)[C@@H]2C)c1 — 2.3-fold lower, 610 nM
- C=CCOc1cc([C@H]2OC(=O)N(C(=O)NCc3cncc4ccccc34)[C@H]2C)nc(C(F)(F)F)c1 — 24-fold lower, 60 nM
- C[C@H]1[C@@H](c2cccc(C(C)(F)F)c2)OC(=O)N1C(=O)NCc1cncc2ccccc12 — 5.7-fold lower, 250 nM
- C[C@H]1[C@@H](c2cc(F)cc(C(F)(F)F)c2)OC(=O)N1C(=O)NCc1ccnc2cccnc12 — 2.6-fold lower, 540 nM
- C[C@H]1[C@@H](c2cc(C(F)(F)F)cc(C(F)(F)F)c2)OC(=O)N1C(=O)CCc1cccc2ccncc12 — 3.5-fold lower, 410 nM
- COc1cc([C@H]2OC(=O)N(C(=O)NCc3cncc4ccccc34)[C@H]2CO)cc(C(F)(F)F)c1 — 7.1-fold lower, 200 nM
- C[C@H]1[C@@H](c2cc(F)cc(C(F)(F)F)c2)OC(=O)N1C(=O)NCc1ccccc1[N+](=O)[O-] — 140-fold lower, 10 nM
- C[C@H]1[C@@H](c2cc(F)cc(C(F)(F)F)c2)OC(=O)N1C(=O)NCc1cccc2ncccc12 — 1.7-fold lower, 850 nM
- C[C@H]1[C@@H](c2cc(F)cc(C(F)(F)F)c2)OC(=O)N1C(=O)NCc1ccccc1S(C)(=O)=O — 2.1-fold higher, 2970 nM
- Cc1cc(F)cc([C@H]2OC(=O)N(C(=O)CCc3cncc4ccccc34)[C@H]2C)c1 — within 1.5-fold, 1880 nM

Reference: ChEMBL document CHEMBL5728748 (2021)
